Earlier results as cited in article PMC8398451, “Molecular Engineering of Curcumin, an Active Constituent of Curcuma longa L. (Turmeric) of the Family Zingiberaceae with Improved Antiproliferative Activity” (Plants, 2021).

How the values were obtained:
Design in all cases: method as in earlier work
Conditions in all cases: cited from earlier work; for Mean % GI: 10 µM, retrieved from NCI data-ware
[1] = test system: CNS Cancer cell line panel
[2] = test system: Non-Small Cell Lung Cancer cell line panel
[3] = test system: Colon Cancer cell line panel
[4] = test system: Leukemia cell line panel
[5] = test system: Ovarian Cancer cell line panel
[6] = test system: Renal Cancer cell line panel
[7] = test system: Melanoma cell line panel
[8] = test system: Prostate Cancer cell line panel
[9] = test system: Breast Cancer cell line panel
[10] = five-dose assay, curcumin NCI data

Structure (SMILES): COc1cc(/C=C/C(=O)CC(=O)/C=C/c2ccc(O)c(OC)c2)ccc1O [Cur, Curcumin]
- Mean % GI [1]: 60.75%
- GI50 [1, 10]: 5.8 µM
- Mean % GI [2]: 49.27%
- GI50 [2, 10]: 9.2 µM
- Mean % GI [3]: 95.76%
- GI50 [3, 10]: 4.7 µM
- Mean % GI [4]: 97.76%
- GI50 [4, 10]: 3.7 µM
- Mean % GI [5]: 44.66%
- GI50 [5, 10]: 9.1 µM
- Mean % GI [6]: 45.35%
- GI50 [6, 10]: 8.9 µM
- Mean % GI [7]: 54.63%
- GI50 [7, 10]: 5.9 µM
- Mean % GI [8]: 61.3%
- GI50 [8, 10]: 11.2 µM
- Mean % GI [9]: 56.1%
- GI50 [9, 10]: 8.1 µM

Structure (SMILES): COc1cc2ncnc(Nc3ccc(F)c(Cl)c3)c2cc1OCCCN1CCOCC1 [Gefitinib]
- Mean % GI [1]: 46.13%
- Mean % GI [2]: 63.97%
- Mean % GI [3]: 52.19%
- Mean % GI [4]: 79.68%
- Mean % GI [5]: 60.93%
- Mean % GI [6]: 77.89%
- Mean % GI [7]: 44.99%
- Mean % GI [8]: 59.6%
- Mean % GI [9]: 52.88%
